Activity calls are given as the source filed them. No cut-off for these calls is given here.
Key:
[1] = test system: SH-SY5Y; assay: Reversal of rotenone-induced mitochondrial membrane depolarization in human SH-SY5Y cells assessed as increase in aggregates fluorescence intensity at 5 uM preincubated with compound for 24 hrs followed by rotenone addition and measured after 24 hrs by JC-10 based fluorescence microscopic analysis; type: functional, cell-based; conditions: time 48.0 hrs
[2] = test system: Rattus norvegicus; assay: Anti-parkinson activity in rotenone-induced male Wistar rat model assessed as improvement in t-total metrics at 5 mg/kg, ip pretreated with compound every alternative days followed by rotenone addition and measured after 42 days by pole test; type: functional, organism-based; conditions: time 42.0 day
[3] = test system: Rattus norvegicus; assay: Anti-parkinson activity in rotenone-induced male Wistar rat model assessed as decrease in fall time at 5 mg/kg, ip pretreated with compound every alternative days followed by rotenone addition and measured after 42 days by inverted grid test; type: functional, organism-based; conditions: time 42.0 day
[4] = test system: Rattus norvegicus; assay: Anti-parkinson activity in rotenone-induced neurodegeneration in male Wistar rat model assessed as decrease count of pyknotic cells in cortex at 5 mg/kg, ip pretreated with compound every alternative days followed by rotenone addition and measured after 42 days by H and E staining based analysis; type: functional, organism-based; conditions: time 42.0 day
[5] = test system: Rattus norvegicus; assay: Anti-parkinson activity in rotenone-induced male Wistar rat model assessed as increase TH expression in striatum at 5 mg/kg, ip pretreated with compound every alternative days followed by rotenone addition and measured after 42 days by Western blotting analysis; type: functional, organism-based; conditions: time 42.0 day
[6] = test system: Rattus norvegicus; assay: Anti-parkinson activity in rotenone-induced male Wistar rat assessed as increase in TH positive fiber density in […] at 5 mg/kg, ip pretreated with compound every alternative days followed by rotenone addition and measured after 42 days by immunofluorescence staining based analysis; type: functional, organism-based; conditions: time 42.0 day
[7] = Toxicity in male Wistar rat assessed as change in spleen morphology at 1 to 10 mg/kg by H and E staining based analysis; type: organism-based; conditions: in vivo, dose 1-10 mg/kg
[8] = test system: Rattus norvegicus; assay: (§1) In vivo inhibition of MAPK signaling pathway in rotenone-induced parkinson disease male Wistar rat model assessed as reduction in P-38 phosphorylation level in striatum at 5 mg/kg, ip pretreated with compound every alternative days followed by rotenone addition and measured after 42 days by Western blotting analysis; type: functional, organism-based; conditions: time 42.0 day
[9] = test system: Rattus norvegicus; assay: Anti-parkinson activity in rotenone-induced neurodegeneration in male Wistar rat model assessed as reduced edema in cortex at 5 mg/kg, ip pretreated with compound every alternative days followed by rotenone addition and measured after 42 days by H and E staining based analysis; type: functional, organism-based; conditions: time 42.0 day
[10] = test system: SH-SY5Y; assay: Anti-apoptotic activity in rotenone-induced human SH-SY5Y cells assessed as reduction in Bax expression by Western blotting analysis; type: functional, cell-based
[11] = Toxicity in male Wistar rat assessed as change in kidney morphology at 1 to 10 mg/kg by H and E staining based analysis; type: organism-based; conditions: in vivo, dose 1-10 mg/kg
[12] = test system: Rattus norvegicus; assay: Anti-parkinson activity in rotenone-induced neurodegeneration in male Wistar rat model assessed as reduction in necrosis in cortex at 5 mg/kg, ip pretreated with compound every alternative days followed by rotenone addition and measured after 42 days by Nissl staining based analysis; type: functional, organism-based; conditions: time 42.0 day
[13] = test system: SH-SY5Y; assay: Anti-inflammatory activity against rotenone-induced human SH-SY5Y cells assessed as reduction in TNF-alpha mRNA expression level by RT-qPCR analysis; type: functional, cell-based
[14] = test system: Rattus norvegicus; assay: Anti-parkinson activity in rotenone-induced male Wistar rat model assessed as increase in TH expression in substantia nigra at 1 mg/kg, ip pretreated with compound every alternative days followed by rotenone addition and measured after 42 days by Western blotting analysis; type: functional, organism-based; conditions: time 42.0 day
[15] = test system: SH-SY5Y; assay: (§2) Neuroprotective activity against rotenone-induced mitochondrial morphological changes in human SH-SY5Y cells assessed as filamentous mitochondrial shape at 5 uM preincubated with compound for 24 hrs followed by rotenone addition and measured after 24 hrs by Mito Tracker staining based fluorescence microscopic analysis; type: functional, cell-based; conditions: time 48.0 hrs
[16] = test system: Rattus norvegicus; assay: Anti-inflammatory activity in rotenone-induced male Wistar rat model assessed as reduction in PGE2 expression level in substantia nigra at 5 mg/kg, ip pretreated with compound every alternative days followed by rotenone addition and measured after 42 days by ELISA; type: functional, organism-based; conditions: time 42.0 day
[17] = test system: Rattus norvegicus; assay: Anti-inflammatory activity in rotenone-induced male Wistar rat model assessed as reduction in IL-1beta expression level in substantia nigra at 5 mg/kg, ip pretreated with compound every alternative days followed by rotenone addition and measured after 42 days by ELISA; type: functional, organism-based; conditions: time 42.0 day
[18] = Half life in male Wistar rat at 50 mg/kg, ip measured after 24 hrs; type: ADME, organism-based; conditions: in vivo
[19] = test system: Rattus norvegicus; assay: (§3) Anti-parkinson activity in rotenone-induced male Wistar rat model assessed as reduction in climbing time at 5 mg/kg, ip pretreated with compound every alternative days followed by rotenone addition and measured after 42 days by pole test; type: functional, organism-based; conditions: time 42.0 day
[20] = test system: SH-SY5Y; assay: Anti-inflammatory activity against rotenone-induced human SH-SY5Y cells assessed as reduction in IL-6 mRNA expression level by RT-qPCR analysis; type: functional, cell-based
[21] = test system: SH-SY5Y; assay: Neuroprotective activity against rotenone-induced ROS formation in human SH-SY5Y cells assessed as reduction in ROS level by measuring fluorescence intensity at 5 uM preincubated with compound for 24 hrs followed by rotenone addition and measured after 24 hrs by CellRox reagent based fluorescence microscopic analysis; type: functional, cell-based; conditions: time 48.0 hrs
[22] = test system: SH-SY5Y; assay: Neuroprotective activity against rotenone-induced neuronal apoptosis in human SH-SY5Y cells assessed as decrease in number of apoptotic cells at 5 uM preincubated with compound for 24 hrs followed by rotenone addition and measured after 24 hrs by Hoechst 33258 staining based fluorescence microscopic analysis; type: functional, cell-based; conditions: time 48.0 hrs
[23] = test system: SH-SY5Y; assay: Anti-inflammatory activity in rotenone-induced human SH-SY5Y cells assessed as reduction in IL-6 expression by Western blotting analysis; type: functional, cell-based
[24] = test system: Rattus norvegicus; assay: as §3, with “rotenone-induced behavioral impairment by measuring” for “climbing”, “time in central zone” for “time”, “open field” for “pole”; type: functional, organism-based; conditions: time 42.0 day
[25] = test system: Rattus norvegicus; assay: Anti-parkinson activity in rotenone-induced neurodegeneration in male Wistar rat model assessed as decrease neuronal damage in cortex at 5 mg/kg, ip pretreated with compound every alternative days followed by rotenone addition and measured after 42 days by Nissl staining based analysis; type: functional, organism-based; conditions: time 42.0 day
[26] = test system: SH-SY5Y; assay: as §2, with “ROS generation” for “morphological changes”, “decrease in ROS level” for “filamentous mitochondrial shape”, “MitoSOX red” for “Mito Tracker”; type: functional, cell-based; conditions: time 48.0 hrs
[27] = Toxicity in male Wistar rat assessed as change in cellular structure of kidney at 1 to 10 mg/kg by H and E staining based analysis; type: organism-based; conditions: in vivo, dose 1-10 mg/kg
[28] = test system: Rattus norvegicus; assay: as §1, with “ERK1/2” for “P-38”, “substantia nigra” for “striatum”; type: functional, organism-based; conditions: time 42.0 day
[29] = test system: Rattus norvegicus; assay: Anti-parkinson activity in rotenone-induced male Wistar rat model assessed as improvement in t-turn metrics at 5 mg/kg, ip pretreated with compound every alternative days followed by rotenone addition and measured after 42 days by pole test; type: functional, organism-based; conditions: time 42.0 day
[30] = Drug excretion in male Wistar rat brain at 50 mg/kg, ip measured after 4.25 hrs; type: ADME, organism-based; conditions: in vivo
[31] = test system: Rattus norvegicus; assay: (§4) Anti-parkinson activity in rotenone-induced neurodegeneration in male Wistar rat model assessed as decrease neuronal damage in substantia nigra at 5 mg/kg, ip pretreated with compound every alternative days followed by rotenone addition and measured after 42 days by Nissl staining based analysis; type: functional, organism-based; conditions: time 42.0 day
[32] = test system: Rattus norvegicus; assay: as §1, with “JNK” for “P-38”; type: functional, organism-based; conditions: time 42.0 day
[33] = Toxicity in male Wistar rat assessed as change in liver morphology at 1 to 10 mg/kg by H and E staining based analysis; type: organism-based; conditions: in vivo, dose 1-10 mg/kg
[34] = test system: Rattus norvegicus; assay: as §4, with “reduction in pyknotic neurons” for “decrease neuronal damage”; type: functional, organism-based; conditions: time 42.0 day
[35] = test system: Rattus norvegicus; assay: Anti-parkinson activity in rotenone-induced neurodegeneration in male Wistar rat model assessed as reduction in necrosis in substantia nigra at 5 mg/kg, ip pretreated with compound every alternative days followed by rotenone addition and measured after 42 days by Nissl staining based analysis; type: functional, organism-based; conditions: time 42.0 day

half-life [18]: 8.5 h | Drug excretion [30]: Active
Structure (SMILES): COc1cc(CCC(=O)N2CCCCC2)cc(OC)c1OC(=O)c1ccccn1
Activity [1]: Active | Activity [2]: Active | Activity [3]: Active | Activity [4]: Active | Activity [5]: Active | Activity [6]: Active | Activity [7]: Non-toxic | inhibition [8]: Active | Activity [9]: Active | Activity [10]: Active | Activity [11]: Non-toxic | Activity [12]: Active | Activity [13]: Active | Activity [14]: Active | Activity [15]: Active | Activity [16]: Active | Activity [17]: Active | Activity [19]: Active | Activity [20]: Active | Activity [21]: Active | Activity [22]: Active | Activity [23]: Active | Activity [24]: Active | Activity [25]: Active | Activity [26]: Active | Activity [27]: Non-toxic | inhibition [28]: Active | Activity [29]: Active | Activity [31]: Active | inhibition [32]: Active | Activity [33]: Non-toxic | Activity [34]: Active | Activity [35]: Active
